Paper PMC8406801, “Naringenin Inhibits Platelet Activation and Arterial Thrombosis Through Inhibition of Phosphoinositide 3-Kinase and Cyclic Nucleotide Signaling” (Frontiers in Pharmacology, 2021)
Where “and” joins values, the source holds several entries; their conditions need not be identical. Equal values may be shown once. Read-outs that look alike come from different tables or passages of the source.

Legend:
washed rat platelets = experiment: Thrombin (0.2 U/mL)-induced aggregation of washed platelets; assay type: cell-based; conditions: for Aggregation (%) / Aggregation % of control: washed platelets, single replicates; for Aggregation (%): raw data
Method: Washed rat platelets were prepared as described previously ([Gao et al., 2011]) with a minor modification. Briefly, rat blood was drawn from the abdominal aorta into the siliconized vacutainers containing 1:9 (v/v) 3.8% sodium citrate, supplemented with 100 ng/ml prostaglandin E1 (PGE1) and centrifuged at 300 × g for 6 min at room temperature. Platelet-rich plasma (PRP) was obtained, and after the addition of 100 ng/ml PGE1, platelets were pelleted at 900 × g for 10 min. Platelets were washed once in Tyrode’s buffer (12 mM NaHCO3, 138 mM NaCl, 5.5 mM glucose, 2.9 mM KCl, 2 mM MgCl2, 0.42 mM NaH2PO4, 10 mM HEPES, pH 7.4) containing 100 ng/ml PGE1, and finally resuspended in Tyrode’s buffer containing 0.02 U/mL apyrase to a final concentration of 4×10^8 cells/mL. Washed platelets were preincubated with vehicle (0.4% dimethyl sulfoxide) or various concentrations of naringenin in the presence of 2 mM CaCl2 for 5 min at 37°C, and then further stimulated by ADP (10 μM), thrombin (0.2 U/mL) or collagen (2 μg/ml). The maximum platelet aggregation rate was detected within 5 min with continuous stirring.
FIGURE 1 Effects of naringenin and naringin on platelet aggregation. Chemical structure of naringin (A) and naringenin (B). The effects of naringin (C) or naringenin (D) on PRP were measured following stimulation with 10 μmol/L ADP. Rat washed platelet aggregation performed with or without different concentrations of naringin (E) or naringenin (F) was recorded after stimulation with 10 μmol/L ADP. Similarly, Washed platelet aggregation performed with vehicle or various concentrations of naringenin was recorded after stimulation with 0.2 U/mL thrombin (G) or 2 μg/ml collagen (H). WP represents washed platelets. Data are expressed as means ± SD (n = 6), the level of aggregation obtained at 5 min with vehicle-treated samples (0 μM) was taken as 100%. *p < 0.05, **p < 0.01, ***p < 0.001 compared with the vehicle control group.

[1] = test system: VASP Ser157 phosphorylation; experiment: Immunoblotting of phospho-VASP (Ser157) in ADP-stimulated washed platelets; assay type: cell-based, rat; conditions: for p-VASP(Ser157) / GAPDH (Fold to ADP only) / p-VASP(Ser157) / GAPDH (raw data): ADP-stimulated, Figure 7B
Method: For in vitro platelet aggregation, aliquots of washed platelets were preincubated with vehicle or various concentrations of naringenin for 5 min and stimulated with ADP (10 μmol/L) under stirring at 37°C for 5 min. For ex vivo platelet aggregation, PRP was incubated at 37°C for 5 min and stimulated with ADP (5 μmol/L) under stirring at 37 °C. The platelet aggregation was terminated by adding ethylenediaminetetraacetic acid (EDTA; 10 mM). Total protein was prepared using RIPA lysis buffer and protein content was determined by bicinchoninic acid (BCA) protein assay kit. Equal amounts of platelet proteins (30 μg) were separated on 10% SDS polyacrylamide gel electrophoresis (SDS-PAGE) and then transferred to poly vinylidene difluoride (PVDF) membranes and subjected to western blot. Blots were blocked with TBS-Tween 20 containing 5% BSA and probed with primary antibodies diluted in blocking solution at 4°C overnight followed by incubation with the corresponding HRP secondary antibodies. The protein bands were visualized using enhanced chemiluminescence (ECL).
VASP is a substrate for cAMP- and cGMP- dependent protein kinases, which mediate cAMP- and cGMP-dependent inhibitory signaling in platelets, respectively. Increased cAMP levels followed by the activation of cAMP-dependent protein kinase A (PKA) phosphorylates VASP at position Ser157, whereas the elevation of cGMP leads to VASP phosphorylation at position Ser239 by cGMP-dependent protein kinase G (PKG) ([Aszódi et al., 1999]; [Li et al., 2003a]). To further examine whether naringenin modulates cAMP- or cGMP-mediated inhibitory signaling, the phosphorylation of VASP (Ser157 and Ser239) in washed platelets on stimulation with ADP were measured in the absence or presence of naringenin (100, 200, 400, and 800 μM). […] To further confirm the antiplatelet effects of naringenin through PKA-dependent signaling, the effects of naringenin on platelet aggregation were measured in the presence of PKG inhibitor (Rp-8-Br-PET-cGMPS) and PKA inhibitor (H89).
FIGURE 7 Naringenin promotes VASP phosphorylation. The effects of naringenin on phosphorylation of VASP (at positions Ser 157 and Ser239) were measured in washed platelets upon stimulation with ADP (10 μmol/L) by western blotting (A). The blots shown are representative of three separate experiments. The phosphorylation levels were quantified by ImageJ 1.47v software. The level of phosphorylation obtained with vehicle control (0 μM) was taken as 1 (B,C). R represents the phosphorylation level in resting platelets. Data are expressed as means ± SD (n = 3). *p < 0.05, ***p < 0.001 compared with the vehicle control group. VASP phosphorylation at Ser239 was also analyzed in washed platelets incubated with 5 μmol/L PKA (H89), 30 μmol/L PKG (Rp-8-Br-PET-cGMPS), or 5 μmol/L PKC (GF109203X) inhibitors before treatment with naringenin (D). Washed platelets were incubated with vehicle or naringenin (200 μmol/L) at 37°C in the presence or absence of 5 μmol/L PKA (H89) or 30 μmol/L PKG (Rp-8-Br-PET-cGMPS) inhibitors. After treatment, platelets were stimulated with ADP (10 μmol/L) to trigger aggregation (E). Data are expressed as means ± SD (n = 6). ***p < 0.001 compared with the ADP-treated group, ^# p < 0.05, ^### p < 0.001 compared with naringenin alone or H89 alone.

In the case of `O=C1C[C@@H](c2ccc(O)cc2)Oc2cc(O)cc(O)c21` [Naringenin], the IC50 (washed rat platelets) is reported as ~684 µM, the IC50 (washed rat platelets; Rattus norvegicus, Platelet) is reported as 684 ± 80.8 µM and the “Aggregation (%)” value (washed rat platelets; 100 μM) is reported as 77.1% and 76.2% and 52.9% and 66.7% and 72.2% and 88.4%. The “Aggregation % of control” value (washed rat platelets; 100 μM) was 95.0 % of control and 93.9 % of control and 65.2 % of control and 82.2 % of control and 88.9 % of control and 108.9 % of control, the “Aggregation (%)” value (washed rat platelets; 200 μM) was 79.6% and 67.1% and 56.9% and 52.0% and 48.0% and 62.4% and the “Aggregation % of control” value (washed rat platelets; 200 μM) was 98.1 % of control and 82.7 % of control and 70.1 % of control and 64.1 % of control and 59.1 % of control and 76.9 % of control. The “Aggregation (%)” value (washed rat platelets; 400 μM) was 77.0% and 53.3% and 68.0% and 42.9% and 66.7% and 43.5%, the “Aggregation % of control” value (washed rat platelets; 400 μM) was 94.9 % of control and 65.7 % of control and 83.8 % of control and 52.9 % of control and 82.2 % of control and 53.6 % of control and the “Aggregation (%)” value (washed rat platelets; 800 μM) was 45.5% and 30.8% and 28.0% and 42.4% and 22.5% and 36.0%. The “Aggregation % of control” value (washed rat platelets; 800 μM) was 56.1 % of control and 37.9 % of control and 34.5 % of control and 52.2 % of control and 27.7 % of control and 44.4 % of control, the “phosphorylation of VASP at Ser157” value ([1]; ADP-stimulated washed platelets, 100, 200, 400, and 800 μM) was “did not significantly alter” and the “p-VASP(Ser157) / GAPDH (Fold to ADP only)” value ([1]; naringenin 200 μM) was 1.6152 and 1.1716 and 1.5055. For the same compound, the “p-VASP(Ser157) / GAPDH (raw data)” value ([1]; naringenin 200 μM) was 0.7758 and 0.5628 and 0.7232, the “p-VASP(Ser157) / GAPDH (Fold to ADP only)” value ([1]; naringenin 400 μM) was 1.6752 and 1.3720 and 1.0597 and the “p-VASP(Ser157) / GAPDH (raw data)” value ([1]; naringenin 400 μM) was 0.8047 and 0.6590 and 0.5090. The “p-VASP(Ser157) / GAPDH (Fold to ADP only)” value ([1]; naringenin 800 μM) was 1.6695 and 1.5145 and 1.3641 and the “p-VASP(Ser157) / GAPDH (raw data)” value ([1]; naringenin 800 μM) was 0.8019 and 0.7275 and 0.6552.
